# Columns and labels:
# [1] = molecular target: T1, Carboxypeptidase A1 (Bos taurus) (UniProt P00730); test: Inhibition of bovine ZnCPD pretreated for 200 seconds at 1.5 mM assessed as transfer of zinc(II) from ZnCPD to chelator 4-(2-pyridylazo)-resorcinol; set-up: scale not given: the % may be the effect or the level left
# T1 sequence (whole entry): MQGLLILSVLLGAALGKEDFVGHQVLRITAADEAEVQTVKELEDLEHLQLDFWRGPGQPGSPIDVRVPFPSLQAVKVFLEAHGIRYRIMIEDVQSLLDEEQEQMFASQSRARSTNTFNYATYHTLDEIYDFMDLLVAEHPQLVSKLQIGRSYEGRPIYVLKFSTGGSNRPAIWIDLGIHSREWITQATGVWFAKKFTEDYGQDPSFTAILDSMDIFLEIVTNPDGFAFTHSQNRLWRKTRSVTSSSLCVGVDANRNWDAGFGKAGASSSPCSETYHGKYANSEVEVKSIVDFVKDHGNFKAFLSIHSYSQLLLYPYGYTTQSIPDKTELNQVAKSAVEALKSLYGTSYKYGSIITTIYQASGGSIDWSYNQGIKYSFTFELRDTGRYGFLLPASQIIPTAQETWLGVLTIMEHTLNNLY
# [2] = molecular target: T1, Carboxypeptidase A1 (Bos taurus); test: Inhibition of bovine ZnCPD pretreated at 0.25 mM assessed as residual enzyme activity in presence of 2.5 uM thionenin after 17 mins
# [3] = molecular target: T1, Carboxypeptidase A1 (Bos taurus); test: Inhibition of bovine ZnCPD pretreated at 0.25 mM assessed as residual enzyme activity in presence of 1 mM ethylenediaminetetraacetic acid within 20 mins
# [4] = molecular target: T1, Carboxypeptidase A1 (Bos taurus); test: Inhibition of bovine ZnCPD pretreated at 5 mM assessed as residual enzyme activity in presence of 1 mM ethylenediaminetetraacetic acid within 7 mins
structure (smiles),measurement,setting,value
CC(C)(S)[C@@H](N)C(=O)O,Activity,[1],45%
same,Activity,[2],1.5%
same,Activity,[3],1%
same,Activity,[4],0.1%

# Reference: ChEMBL document CHEMBL1137601, “Catalysis of zinc transfer by D-penicillamine to secondary chelators” (J Med Chem, 2007)
